From patent US20240294548A1, “TRICYCLIC SULTAMS AND SULFAMIDES AS ANTITUMOR AGENTS” (PELOTON THERAPEUTICS INC., priority 2021, published 2024) come the findings set out here.

Some results are limits rather than exact numbers.

Experiment [1] has as its target T1, DCAF15 RBM39 ternary complex (Homo sapiens, UniProt Q14498+Q66K64, DEL276-383).
T1 construct: Amino acids 150 to 331 of RBM39 were cloned into pGEX4T3; GST (from the pGEX4T3 vector, own knowledge) followed by a TEV cleavage site (N); made in house; host or cells: Sf9 baculovirus (DDB1ΔB/DCAF15); E. coli (RBM39 R1R2)
Description: DCAF15 RBM39 complex formation assay (FRET). The experiment is classed as biochemical. Conditions: FRET ratio, 20 nM DDB1DB/DCAF15, 50 nM RBM39 R1R2, overnight at 4° C.; read-out: DCAF15 RBM39 ternary complex EC50. From the text: (§1) Proteins used for the assays were as follows: Human DDA1 (UniProt:Q9BW61), DDB1 (UniPro: Q16531), and DCAF15 (UniProt: Q66K64) coding sequences were cloned into pFastBac1 vectors and were co-expressed in Sf9 cells using Bac-to-Bac baculovirus expression system (Thermo Fisher Scientific). The expression construct for DCAF15 includes a N-terminal His6-tag to facilitate the purification.
DCAF15 RBM39 Complex Formation Assay
LANCE Eu-W1024 Anti-6×His and SureLight Allophycocyanin-anti-FLAG antibodies were purchased from Perkin Elmer. Human DDB1DB and His-tagged DCAF15 were co-expressed in baculovirus/sf9 system. […] The His-tagged DCAF15 contains six histidine residues directly preceding the DCAF15 sequence without any linker. An RBM39 fragment containing RRM1 and RRM2 was expressed in E. coli.
A compound of the present disclosure in DMSO (2 μL) was transferred to a 384-well assay plate. Compound was added in 14 points, 3-fold serial dilution (1 μM to 0.6 pico molar) in DMSO. […] FRET assay buffer (25 mM HEPES, pH 7.5, 100 mM NaCl, […], 0.5 mM TCEP, 0.005% Tween-20, 0.2 nM Eu-W1024 Anti-6×His, 50 nM SureLight Allophycocyanin-anti-FLAG, 20 nM DDB1DB/DCAF15, 50 nM RBM39 R1R2) was added and the resulting solution was incubated overnight at 4° C. […] Low signal controls containing no compound and high signal controls containing 10 mM indisulam were measured for each plate.
EC50 values were calculated using Dotmatics template equation for 4-parameter fit.
Results are expressed as % formation using the following equation: […]

The target of experiment [2] is T2, DCAF15 (DDA1-DDB1ΔB-DCAF15Δpro) (Homo sapiens, UniProt Q66K64, DEL276-383).
T2 construct: made in house; host or cells: Sf9 (Bac-to-Bac baculovirus)
Description: DCAF15 displacement assay (displacement FRET, probe PT7795). The experiment is classed as binding. Conditions: displacement of PT7795 (300 nM), compound 0.01 to 100 μM, 18 hours incubation; read-out: DCAF15 displacement IC50.
Excerpt: as §1
DCAF15 Displacement Assay (Displacement FRET KD)
Synthesis of the probe PT7795 is described in the article.
Binding of PT7795 to DDA1-DDB1AB-DCAF15Δpro was measured by the FRET signal between europium-labeled anti-His antibody (AD0205, Perkin Elmer) that is associated with His-tagged DCAF15 and ALX647 moiety in PT7795. […] After equilibrating for 2-3 hours at 4° C., the plate was removed from the incubator, briefly spun, then read on a Spark 10 (Tecan) at the excitation/emission wavelength of 340 nm/615 nm and 340 nm/665 nm.
Binding of compounds in this disclosure to DCAF15 was measured in a competition by the displacement of PT7795. The concentration of PT7795 was kept at 300 nM while the concentration of a compound was varied from 0.01 to 100 μM. The incubation time was increased to 18 hours for enhanced signal to noise level.
F=Fmin+(Fmax−Fmin)/(1+10^(logIC50−log[Compound])^n) (Equation 2)
The Kds can then be calculated from IC50s using Equation 3 (Cheng-Prusoff equation).

Experiment [3] has as its system HCT116 human colorectal carcinoma cells. In words: CellTiter-Glo assay (cell viability). The experiment is classed as cell-based. The note with it: HCT-116, 72 h, HCT116 cells, 3 days, CellTiter-Glo luminescence, read-out: CTG IC50. As to the method:
HCT116 human colorectal carcinoma cells were used in these experiments. HCT116 cells were obtained from ATCC. CellTiter-Glo® Luminescent Cell Viability Assay Reagent was obtained from Promega.
About 3,000 cells were seeded into 96-well plate with 100 μL of media (DMEM supplemented with 10% FBS, 100 units penicillin, and […] streptomycin per mL) the day before the experiment. For compound treatment, the master plate was prepared as follows: 100× compound stocks were prepared in a 96-well plate by 1 to 3 serial dilutions of 0.5 mM DMSO stocks. Each master plate contained serial dilution of 8 compounds, including the control compound E7820. […] of 100× compound stock was added to each well of the assay plate to give final concentrations of […]. Each concentration was tested in triplicate. After 3 days, cell viability was determined using CellTiter-Glo Luminescent Cell Viability Assay Reagent following the manufacturer's recommended protocol. Briefly, […] of CellTiter-Glo reagent was added to each well of the assay plate and the contents were mixed for 3 minutes at 600 rpm on a shaker (Thermomixer R). The plate was immediately placed in a plate reader (Synergy 2) and the luminescence signal (0.5 second per well integration time) was determined. IC50 values were calculated using Dotmatics software.

T1 sequence (Q66K64 with tags, fused parts or gaps DEL276-383): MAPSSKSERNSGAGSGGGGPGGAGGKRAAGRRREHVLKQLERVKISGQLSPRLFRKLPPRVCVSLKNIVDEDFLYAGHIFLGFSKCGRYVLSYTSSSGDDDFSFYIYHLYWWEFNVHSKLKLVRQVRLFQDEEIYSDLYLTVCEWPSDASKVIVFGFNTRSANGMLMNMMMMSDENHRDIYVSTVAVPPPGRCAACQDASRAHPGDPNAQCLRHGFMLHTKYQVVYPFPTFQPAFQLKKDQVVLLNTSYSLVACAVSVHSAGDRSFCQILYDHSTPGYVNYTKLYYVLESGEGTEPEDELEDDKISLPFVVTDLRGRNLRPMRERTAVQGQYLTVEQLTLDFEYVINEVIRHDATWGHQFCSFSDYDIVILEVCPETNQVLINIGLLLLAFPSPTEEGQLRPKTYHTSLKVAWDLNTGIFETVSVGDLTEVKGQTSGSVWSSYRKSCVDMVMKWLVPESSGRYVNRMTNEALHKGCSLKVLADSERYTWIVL
T1 sequence (Q14498 150-331, stated change not applied): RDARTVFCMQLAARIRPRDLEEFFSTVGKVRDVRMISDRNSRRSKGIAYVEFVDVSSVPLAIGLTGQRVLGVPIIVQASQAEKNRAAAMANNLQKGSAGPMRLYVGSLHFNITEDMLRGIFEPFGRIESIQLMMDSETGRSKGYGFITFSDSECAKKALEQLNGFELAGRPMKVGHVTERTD

One may read the EC50 as the concentration that produces a half-maximal response. One may read the IC50 as the concentration that gives 50% inhibition. On to `COCCC1Cc2cc(Cl)c3c(Cl)c[nH]c3c2NS1(=O)=O` (racemic) [Compound 22, 6,7-dichloro-3-(2-methoxyethyl)-1,3,4,9-tetrahydro-[1,2]thiazino[4,3-g]indole 2,2-dioxide], for which, in experiment [1], the EC50 turned out to be 0.7 nM. In addition, the IC50 worked out at 12300 nM in experiment [2] and 234 nM in experiment [3].
On the same counts, the results for `COCC[C@H]1Cc2cc(Cl)c3c(Cl)c[nH]c3c2NS1(=O)=O` (single isomer, unassigned) [Compound 29] are 1.9 nM, 50500 nM and 555 nM.
On the same counts, the results for `COCC[C@@H]1Cc2cc(Cl)c3c(Cl)c[nH]c3c2NS1(=O)=O` (single isomer, unassigned) [Compound 30] are 1.3 nM, 2580 nM and 184 nM.
The like results for `COCCN1Cc2cc(Cl)c3c(Cl)c[nH]c3c2NS1(=O)=O` [Compound 1, 6,7-dichloro-3-(2-methoxyethyl)-1,3,4,9-tetrahydro-[1,2,6] thiadiazino[4,3-g]indole 2,2-dioxide] were, in that order, 5.5 nM, 3160 nM and 475 nM.
For `COCCN1Cc2cc(Cl)c3cc[nH]c3c2NS1(=O)=O` [Compound 2, 6-chloro-3-(2-methoxyethyl)-1,3,4,9-tetrahydro-[1,2,6] thiadiazino[4,3-g]indole 2,2-dioxide], the EC50 in experiment [1] came out at 65.8 nM. Moreover, the IC50 in experiment [2] came out at 51800 nM; in experiment [3] it was 2230 nM.
The like results for `O=S1(=O)NCc2cc(Cl)c3c(Cl)c[nH]c3c2N1` [Compound 3, 6,7-dichloro-1,3,4,9-tetrahydro-[1,2,6]thiadiazino[4,3-g]indole 2,2-dioxide] were, in that order, 8.1 nM, 27800 nM and 1430 nM.
The like results for `O=S1(=O)Nc2c(ccc3c(Cl)c[nH]c23)CN1C1CCCCC1` [Compound 4, 7-chloro-3-cyclohexyl-1,3,4,9-tetrahydro-[1,2,6] thiadiazino[4,3-g]indole 2,2-dioxide] were, in that order, 16.1 nM, 58100 nM and 943 nM.
The like results for `O=S1(=O)CCc2cc(Cl)c3c(Cl)c[nH]c3c2N1` [Compound 5, 6,7-dichloro-1,3,4,9-tetrahydro-[1,2]thiazino[4,3-g]indole 2,2-dioxide] were, in that order, 11 nM, 20000 nM and 789 nM.
`O=S1(=O)Nc2c(cc(Cl)c3c(Cl)c[nH]c23)CN1Cc1ccccc1` [Compound 6, 3-benzyl-6,7-dichloro-1,3,4,9-tetrahydro-[1,2,6]thiadiazino[4,3-g]indole 2,2-dioxide]: in experiment [1], the EC50 is 3.1 nM. The IC50 in experiment [2] was 5260 nM; in experiment [3], 608 nM.
The like results for `O=S1(=O)Nc2c(cc(Cl)c3c(Cl)c[nH]c23)CN1c1ccccc1` [Compound 7, 6,7-dichloro-3-phenyl-1,3,4,9-tetrahydro-[1,2,6] thiadiazino[4,3-g]indole 2,2-dioxide] were, in that order, 8.8 nM, 17400 nM and 1310 nM.
The like results for `COCCN1Cc2cc(Cl)c3c(C#N)c[nH]c3c2NS1(=O)=O` [Compound 8, 6-chloro-3-(2-methoxyethyl)-1,3,4,9-tetrahydro-[1,2,6] thiadiazino[4,3-g]indole7-carbonitrile 2,2-dioxide] were, in that order, 6.2 nM, 3340 nM and 3160 nM.
On to `CCCC1=Cc2ccc3c(Cl)c[nH]c3c2NS1(=O)=O` [Compound 9, 7-chloro-3-propyl-1,9-dihydro-[1,2]thiazino[4,3-g]indole 2,2-dioxide], for which, in experiment [1], the EC50 is 74.7 nM. In addition, the half-maximal inhibitory concentration (IC50) in experiment [2] is at least 100000 nM; in experiment [3] it was 5000 nM.
On the same counts, the results for `CCCC1Cc2ccc3c(Cl)c[nH]c3c2NS1(=O)=O` (stereo not drawn) [Compound 10, 7-chloro-3-propyl-1,3,4,9-tetrahydro-[1,2]thiazino[4,3-g]indole 2,2-dioxide] are 16.4 nM, at least 100000 nM and 5000 nM.
